Tests used:
[1] = Antiproliferative activity against human SK-MEL-188 cells after 48 hrs by SRB assay; type: functional, cell-based; settings: SK-MEL-188, 48 h
[2] = Antiproliferative activity against human fibroblasts after 48 hrs by SRB assay; type: cell-based; settings: Fibroblast
[3] = Antiproliferative activity against human WM164 cells after 48 hrs by SRB assay; type: functional, cell-based; settings: WM164, 48 h

With `CCCCCCCCCCNC(=O)[C@@H]1CSC(c2ccc3c(c2)OCO3)N1` (stereo partly specified) the IC50 [1] was 6600 nM, the IC50 [2] was 8200 nM and the IC50 [3] was 4500 nM.

Compound `CCCCCCCCCCCCNC(=O)[C@@H]1CSC(c2ccc3c(c2)OCO3)N1` (stereo partly specified) has an IC50 [1] of 3500 nM, an IC50 [2] of 5200 nM and an IC50 [3] of 2500 nM.

Compound `CCCCCCCCCCCCCCCCNC(=O)[C@@H]1CSC(c2ccc(OC)c(OC)c2)N1` (stereo partly specified) has an IC50 [1] of 1500 nM, an IC50 [2] of 2100 nM and an IC50 [3] of 500 nM.

For `CCCCCCCCCCCCCCCCNC(=O)[C@@H]1CSC(c2ccc3c(c2)OCO3)N1` (stereo partly specified), the IC50 [1] was 1600 nM, the IC50 [2] was 5700 nM and the IC50 [3] was 1800 nM.

With `CCCCCCCCNC(=O)[C@@H]1CSC(c2cc(OC)c(OC)c(OC)c2)N1` (stereo partly specified) the IC50 [1] was 17100 nM, the IC50 [2] was 20800 nM and the IC50 [3] was 19600 nM.

Work on `CCCCCCCCCCCCCCCCNC(=O)[C@@H]1CSC(c2ccccc2)N1` (stereo partly specified) yielded an IC50 [1] of 1900 nM, an IC50 [2] of 2200 nM and an IC50 [3] of 700 nM.

`CCCCCCCCCCCCCCCCNC(=O)[C@@H]1CSC(c2cc(OC)c(OC)c(OC)c2)N1` (stereo partly specified) gave an IC50 [1] of 1800 nM, an IC50 [2] of 2400 nM and an IC50 [3] of 700 nM.

`CCCCCCCCCCCCCCCCNC(=O)[C@H]1CSC(c2ccc(NC(C)=O)cc2)N1` (stereo partly specified) showed an IC50 [1] of 3200 nM, an IC50 [2] of 22600 nM and an IC50 [3] of 1400 nM.

With `CCCCCCCCCCCCCCCCCNC(=O)[C@@H]1CSC(c2ccc(NC(C)=O)cc2)N1` (stereo partly specified) the IC50 [1] was 8500 nM, the IC50 [2] was 35800 nM and the IC50 [3] was 2400 nM.

In the case of `CCCCCCCCCCCCCCNC(=O)[C@@H]1CSC(c2ccc(OC)c(OC)c2)=N1`, the IC50 [1] is reported as 19100 nM, the IC50 [2] is reported as greater than 50000 nM and the IC50 [3] is reported as 42900 nM.

Work on `CCCCCCCCCCCCCCNC(=O)[C@H]1CSC(c2cc(OC)c(OC)c(OC)c2)N1` (stereo partly specified) yielded an IC50 [1] of 2600 nM, an IC50 [2] of 4100 nM and an IC50 [3] of 1100 nM.

Work on `CCCCCCCCCCCCCCNC(=O)[C@@H]1CSC(c2ccc(OC)c(OC)c2)N1` (stereo partly specified) yielded an IC50 [1] of 1500 nM, an IC50 [2] of 2800 nM and an IC50 [3] of 800 nM.

Compound `CCCCCCCCCCCCCCCCNC(=O)[C@@H]1CSC(c2ccc(NC(C)=O)cc2)N1` (stereo partly specified) has an IC50 [1] of 2100 nM, an IC50 [2] of 19100 nM and an IC50 [3] of 600 nM.

In the case of `CCCCCCCCCCCCCCCNC(=O)[C@@H]1CSC(c2ccc(NC(C)=O)cc2)N1` (stereo partly specified), the IC50 [1] is reported as 1600 nM, the IC50 [2] is reported as 14300 nM and the IC50 [3] is reported as 1000 nM.

With `CCCCCCCCCCCCNC(=O)[C@@H]1CSC(c2ccc(N)cc2)N1` (stereo partly specified) the IC50 [1] was 2200 nM, the IC50 [2] was 4100 nM and the IC50 [3] was 1400 nM.

With `CCCCCCCCC/C=C/CCCCCCCNC(=O)[C@@H]1CSC(c2ccc(NC(C)=O)cc2)N1` (stereo partly specified) the IC50 [1] was 3300 nM, the IC50 [2] was 18000 nM and the IC50 [3] was 1400 nM.

`CCCCCCCCCCCCCCNC(=O)[C@@H]1CSC(c2ccccc2)N1` (stereo partly specified) gave an IC50 [1] of 1900 nM, an IC50 [2] of 2800 nM and an IC50 [3] of 600 nM.

`CCCCCCCCCCCCCCCCCCNC(=O)[C@@H]1CSC(c2ccc(NC(C)=O)cc2)N1` (stereo partly specified) showed an IC50 [1] of 22300 nM, an IC50 [2] greater than 60000 nM and an IC50 [3] of 11600 nM.

With `COc1cc(C2SCC3C(=O)N4C(CSC4c4cc(OC)c(OC)c(OC)c4)C(=O)N32)cc(OC)c1OC` (stereo unspecified) the IC50 [1] was greater than 50000 nM, the IC50 [2] was greater than 50000 nM and the IC50 [3] was greater than 50000 nM.

In the case of `CNC(=O)c1cc(Oc2ccc(NC(=O)Nc3ccc(Cl)c(C(F)(F)F)c3)cc2)ccn1` [SORAFENIB], the IC50 [1] is reported as 5400 nM, the IC50 [2] is reported as 15100 nM and the IC50 [3] is reported as 4900 nM.

Compound `CCCCCCCCCCCCCCNC(=O)[C@@H]1CSC(c2ccc(NC(C)=O)cc2)N1` (stereo partly specified) has an IC50 [1] of 2300 nM, an IC50 [2] of 3600 nM and an IC50 [3] of 600 nM.

Work on `CCCCCCCCCCCCNC(=O)[C@@H]1CSC(c2ccc(OC)c(OC)c2)N1` (stereo partly specified) yielded an IC50 [1] of 2900 nM, an IC50 [2] of 4500 nM and an IC50 [3] of 1600 nM.

Work on `CCCCCCCCC/C=C\CCCCCCCNC(=O)[C@@H]1CSC(c2ccc(NC(C)=O)cc2)N1` (stereo partly specified) yielded an IC50 [1] of 1400 nM, an IC50 [2] of 10600 nM and an IC50 [3] of 1000 nM.

For `CCCCCCCCCCCCCCCCNC(=O)[C@@H]1CSC(c2ccc(NC(C)=O)cc2)N1C` (stereo partly specified), the IC50 [1] was 29100 nM, the IC50 [2] was greater than 100000 nM and the IC50 [3] was greater than 100000 nM.

`CCCCCCCCCCCCNC(=O)[C@@H]1CSC(c2cc(OC)c(OC)c(OC)c2)N1` (stereo partly specified) gave an IC50 [1] of 2100 nM, an IC50 [2] of 2400 nM and an IC50 [3] of 2400 nM.

For `CCCCCCCCCCNC(=O)[C@@H]1CSC(c2cc(OC)c(OC)c(OC)c2)N1` (stereo partly specified), the IC50 [1] was 14500 nM, the IC50 [2] was 6700 nM and the IC50 [3] was 2100 nM.

With `CCCCCCCCCCNC(=O)[C@@H]1CSC(c2ccc(OC)c(OC)c2)N1` (stereo partly specified) the IC50 [1] was 11900 nM, the IC50 [2] was 6300 nM and the IC50 [3] was 6100 nM.

Work on `CN(C)/N=N/c1[nH]cnc1C(N)=O` [DACARBAZINE] yielded an IC50 [1] greater than 100000 nM and an IC50 [3] greater than 100000 nM.

With `CON(C)C(=O)[C@@H]1CSC(c2ccccc2)N1` (stereo partly specified) the IC50 [1] was greater than 100000 nM, the IC50 [2] was greater than 100000 nM and the IC50 [3] was greater than 100000 nM.

`CCCCCCCCCCCCCCNC(=O)[C@@H]1CSC(c2ccc3c(c2)OCO3)N1` (stereo partly specified) showed an IC50 [1] of 1600 nM, an IC50 [2] of 4200 nM and an IC50 [3] of 1000 nM.

`CCCCCCCCCCCCCCNC(=O)[C@@H]1CSC(c2ccccc2)=N1` gave an IC50 [1] of 42100 nM, an IC50 [2] greater than 50000 nM and an IC50 [3] greater than 50000 nM.

`CCCCCCCCCCCCCCNC(=O)[C@@H]1CSC(c2cc(OC)c(OC)c(OC)c2)N1` (stereo partly specified) showed an IC50 [1] of 2000 nM, an IC50 [2] of 2600 nM and an IC50 [3] of 1600 nM.

Work on `CCCCCCCCCCCCNC(=O)[C@@H]1CSC(c2ccc(NC(C)=O)cc2)N1` (stereo partly specified) yielded an IC50 [1] of 2400 nM, an IC50 [2] of 3500 nM and an IC50 [3] of 1200 nM.

In the case of `CCCCCCCCCCCCCCCCNC(=O)[C@@H]1CSC(c2ccc(N)cc2)N1` (stereo partly specified), the IC50 [1] is reported as 2300 nM, the IC50 [2] is reported as 7400 nM and the IC50 [3] is reported as 1400 nM.

Source: ChEMBL document CHEMBL1149555, “Synthesis and antiproliferative activity of thiazolidine analogs for melanoma” (Bioorg Med Chem Lett, 2007)
